Measured values: US20250115569A1, “SULFONAMIDE COMPOUNDS FOR THE TREATMENT OF NEUROLOGICAL CONDITIONS” (LARIO THERAPEUTICS LIMITED, priority 2021, published 2025)

Tested on: Human Cav2.3 channel
Test: Human Cav2.3 channel calcium-influx assay
Type: cell-based
Details: Fluo8 fluorescence, HEK-293 T-Rex/Kir2.1/Cav2.3e cells, without pluronic acid
Method: HEK-293 T-Rex cells were transfected with pcDNA3.1-Kir2.1 to generate a stable cell line. After antibiotic selection, the obtained stable pools were analysed using FLIPR^TETRA (membrane potential assay), and a limiting dilution was performed and a HEK-293 T-Rex/Kir2.1 clone was selected. The clone was transfected with pcDNA3.1-Cav2.3e and pBud-Cav-β4-α2δ1 to generate a stable cell line where the Cav2.3e expression is inducible. After antibiotic selection, functional clone pool analysis and two successive limiting dilutions, the final clone underwent a qPCR analysis and a biophysical and pharmacological validation using patch-clamp.
A compound plate, containing 10 test compounds in eight-points dose response with n=4, was prepared. Test compounds dose response curves were prepared in automated fashion in 100% DMSO at CyBio Felix and starting from a stock solution in 100% DMSO; a defined volume was serially moved into destination wells pre-filled with the desired DMSO volume; stock solution concentration volumes were dependent on the final compounds concentrations to be tested and the final DMSO content used in the assay. For the assay test compounds dose response curves ranged from 30 μM and half log dilution with 0.3% final DMSO. In order to obtain the 8-points dose response curve all the concentrations were created by starting from a 10 mM DMSO stock solution and then moving 9.5 μL into a destination well pre-filled with 20.5 μL of 100% DMSO and repeating this step seven times. This initial step was done into 96 MTP plates, 10 compounds/plate. One 384 MTP was then reformatted to contain all the 10 compounds at 8 concentrations, quadruplicate data points. This so obtained 384 MTP compound plate served as source plate in a “mother to child” process with a CyBi®-Well dispenser in which 0.7 μL of compounds were moved into a destination plate pre-filled with 57.6 μL of Tyrode's buffer 0 mM K+, thus obtaining 4× concentrated compounds solution. In columns 1-2 and 23-24 the control wells were added. Both “source” compound plate and “destination” compound plate were barcoded and a relationship between the two plates was thus generated.
The day before the experiment, cells were detached by gentle wash with DPBS, followed by 5 min incubation at 37° C. with Trypsin solution. Detached cells were diluted with OptiMEM+Doxycycline at 0.2 μg/mL, counted and plated in Poly-D-Lysine coated black/clear bottom (15.000 c/well in 20 μl/well) by the use of a MATRIX WellMate dispenser. Plates were placed into a humidified incubator at 37° C. with 5% CO2 until the experimental day. 24 h after seeding 10 μL/well of 1.5× Fluo8 NW dye solution prepared in Tyrode's buffer 0 mM K* were added on top of the seeding medium. Cell plates were incubated for 40-60 min at RT in the dark. We then Injected off-line 10 μL/well of test compounds and controls 4× concentrated in Tyrode's Buffer 0 mM K+ with the CyBi®-Well instrument. Cell plates were incubated 3 minutes at RT. Finally, we injected 20 μL/well of 3× concentrated activator solution (K20-Na130-Ca2 buffer: 20 mM KCl, 130 mM NaCl, 2 mM CaCl2, 10 mM HEPES, 10 mM Glucose, final concentrations, prepared starting from “K0-Na150-Ca2” and “K150-Na0-Ca2” buffers) at FDSS7000EX instrument and read emitted fluorescence for 130 seconds.
Data analysis was performed with Genedata Screener® software and reported compounds activity as % effect in relation to the normalization standards. The Kinetic Response Value (KRV) is calculated as follows:
KRV=Maximal fluorescence recorded from second 5 to second 130 minus baseline fluorescence, computed as average from second 1 to second 2, of the kinetic trace. The KRV was normalized versus Neutral Controls and Inhibitor Controls in order to obtain the Activity[%] for each well. […] Therefore, the compound activity values were scaled (based on the two references) to a common range (two-point normalization). […]

Cav2.3 (pIC50) | Compound
5.53 | CCN(C(c1ccc(F)cc1)C(F)(F)F)S(=O)(=O)c1ccc(C)s1 (centres unmarked) [Example 8, N-ethyl-5-methyl-N-(2,2,2-trifluoro-1-(4-fluorophenyl)ethyl)thiophene-2-sulfonamide]
6.61 | CCN([C@H](c1ccc(F)cc1)C(F)(F)F)S(=O)(=O)c1cnc2cc[nH]c2c1 [Example 149, (R)—N-ethyl-N-(2,2,2-trifluoro-1-(4-fluorophenyl)ethyl)-1H-pyrrolo[3,2-b]pyridine-6-sulfonamide]
6.92 | CCN(C(c1ccc(F)cc1)C(F)(F)F)S(=O)(=O)C1CCCOC1 (centres unmarked) [Example 56, N-ethyl-N-(2,2,2-trifluoro-1-(4-fluorophenyl)ethyl)tetrahydro-2H-pyran-3-sulfonamide]
5.21 | CCN([C@@H](c1ccc(F)cc1)C(F)(F)F)S(=O)(=O)c1cncnc1 [Example 59, (S)—N-ethyl-N-(2,2,2-trifluoro-1-(4-fluorophenyl)ethyl)pyrimidine-5-sulfonamide]
5.81 | CCN([C@H](c1ccccc1F)C(F)(F)F)S(=O)(=O)c1cncc(C#N)c1 [Example 116, (R)-5-Cyano-N-ethyl-N-(2,2,2-trifluoro-1-(2-fluorophenyl)ethyl)pyridine-3-sulfonamide]
7.49 | CCN(C(c1ccc(F)cc1)C(F)(F)F)S(=O)(=O)c1cncc(C#N)c1 (centres unmarked) [Example 26, 5-cyano-N-ethyl-N-(2,2,2-trifluoro-1-(4-fluorophenyl)ethyl)pyridine-3-sulfonamide]
5.69 | Cc1ncc(S(=O)(=O)N(C)[C@H](c2ccc(F)cc2)C(F)(F)F)cn1 [Example 78, (R)—N,2-dimethyl-N-(2,2,2-trifluoro-1-(4-fluorophenyl)ethyl)pyrimidine-5-sulfonamide]
6.31 | CCNc1nc2ccc(S(=O)(=O)N(CC)[C@H](c3ccc(F)cc3)C(F)(F)F)cc2s1 [Example 139, (R)—N-ethyl-2-(ethylamino)-N-(2,2,2-trifluoro-1-(4-fluorophenyl)ethyl)benzo[d]thiazole-6-sulfonamide]
5.19 | CCN(C(c1ccc(F)cc1F)C(F)(F)F)S(=O)(=O)c1cncc(C#N)c1 (centres unmarked) [Example 243, 5-cyano-N-(1-(2,4-difluorophenyl)-2,2,2-trifluoroethyl)-N-ethylpyridine-3-sulfonamide]
7.33 | CN([C@H](c1ccc(C(F)(F)F)cc1)C(F)(F)F)S(=O)(=O)c1ccn2ccnc2c1 [Example 236, (R)—N-methyl-N-(2,2,2-trifluoro-1-(4-(trifluoromethyl)phenyl)ethyl)imidazo[1,2-a]pyridine-7-sulfonamide]
6.20 | CCN([C@H](c1ccc(F)cc1)C(F)(F)F)S(=O)(=O)c1ccc(N2CCOCC2)s1 [Example 90, (R)—N-ethyl-5-morpholino-N-(2,2,2-trifluoro-1-(4-fluorophenyl)ethyl)thiophene-2-sulfonamide]
5.91 | CN([C@H](c1ccc(C(F)(F)F)cc1)C(F)(F)F)S(=O)(=O)c1ccc2ncc(Cl)n2c1 [Example 233, (R)-3-chloro-N-methyl-N-(2,2,2-trifluoro-1-(4-(trifluoromethyl)phenyl)ethyl)imidazo[1,2-a]pyridine-6-sulfonamide]
6.87 | CCN([C@H](c1cccc(C)c1)C(F)(F)F)S(=O)(=O)c1cncc(C#N)c1 [Example 114, (R)-5-cyano-N-ethyl-N-(2,2,2-trifluoro-1-(m-tolyl)ethyl)pyridine-3-sulfonamide]
6.60 | CN([C@H](c1ccc(Cl)cc1)C(F)F)S(=O)(=O)c1cncc(C#N)c1 [Example 206, (R)—N-(1-(4-chlorophenyl)-2,2-difluoroethyl)-5-cyano-N-methylpyridine-3-sulfonamide]
7.14 | CCN(C(c1ccc(F)cc1)C(F)(F)F)S(=O)(=O)c1cncnc1 [Example 60, (R)—N-ethyl-N-(2,2,2-trifluoro-1-(4-fluorophenyl)ethyl)pyrimidine-5-sulfonamide]
5.62 | CCN([C@@H](c1ccc(F)cc1)C(F)(F)F)S(=O)(=O)c1cncc(N2CCOCC2)c1 [Example 95, (S)—N-ethyl-5-morpholino-N-(2,2,2-trifluoro-1-(4-fluorophenyl)ethyl)pyridine-3-sulfonamide]
5.23 | CCN([C@@H](c1ccc(F)cc1)C(F)(F)F)S(=O)(=O)c1csc(C#N)c1 (stereo in doubt) [Example 44, 5-cyano-N-ethyl-N-(2,2,2-trifluoro-1-(4-fluorophenyl)ethyl)thiophene-3-sulfonamide]
7.24 | CCN(C(c1ccc(C)cc1)C(F)(F)F)S(=O)(=O)c1cncc(C#N)c1 (centres unmarked) [Example 104, 5-Cyano-N-ethyl-N-(2,2,2-trifluoro-1-(p-tolyl)ethyl)pyridine-3-sulfonamide]
5.38 | CCN([C@@H](c1ccc(C)cc1)C(F)(F)F)S(=O)(=O)c1cncc(C#N)c1 [Example 105, (S)-5-Cyano-N-ethyl-N-(2,2,2-trifluoro-1-(p-tolyl)ethyl)pyridine-3-sulfonamide]
6.31 | CCN(C(c1ccc(F)cc1)C(F)(F)F)S(=O)(=O)c1ccc(C#N)s1 (centres unmarked) [Example 3, 5-cyano-N-ethyl-N-(2,2,2-trifluoro-1-(4-fluorophenyl)ethyl)thiophene-2-sulfonamide]
6.96 | CCN(C(c1cccc(C)c1)C(F)(F)F)S(=O)(=O)c1cncc(C#N)c1 (centres unmarked) [Example 113, 5-Cyano-N-ethyl-N-(2,2,2-trifluoro-1-(m-tolyl)ethyl)pyridine-3-sulfonamide]
5.50 | CCN([C@@H](c1cccc(OC)c1)C(F)(F)F)S(=O)(=O)c1cncc(C#N)c1 [Example 73, (S)-5-Cyano-N-ethyl-N-(2,2,2-trifluoro-1-(3-methoxyphenyl)ethyl)pyridine-3-sulfonamide]
6.30 | CCN([C@H](c1ccc(F)cc1)C(F)(F)F)S(=O)(=O)c1cccc(C)n1 [Example 33, (R)—N-ethyl-6-methyl-N-(2,2,2-trifluoro-1-(4-fluorophenyl)ethyl)pyridine-2-sulfonamide]
6.07 | CN([C@@H](CF)c1ccc(Cl)cc1)S(=O)(=O)c1cncc(C#N)c1 [Example 213, (R)—N-(1-(4-chlorophenyl)-2-fluoroethyl)-5-cyano-N-methylpyridine-3-sulfonamide]
6.79 | Cc1ccc([C@@H](N(C)S(=O)(=O)c2cncnc2)C(F)(F)F)cc1 [Example 226, (R)—N-methyl-N-(2,2,2-trifluoro-1-(p-tolyl)ethyl)pyrimidine-5-sulfonamide]
5.50 | CCN(C(c1ccc(F)cc1)C(F)(F)F)S(=O)(=O)c1ccc(C2=CCOCC2)s1 (centres unmarked) [Example 87, 5-(3,6-Dihydro-2H-pyran-4-yl)-N-ethyl-N-(2,2,2-trifluoro-1-(4-fluorophenyl)ethyl)thiophene-2-sulfonamide]
4.89 | CN(C)C(=O)c1ccc(S(=O)(=O)NC(c2ccc(F)cc2)C(F)(F)F)s1 (centres unmarked) [Example 24, N,N-dimethyl-5-(N-(2,2,2-trifluoro-1-(4-fluorophenyl)ethyl)sulfamoyl)thiophene-2-carboxamide]
5.38 | CCN([C@@H](c1ccccc1F)C(F)(F)F)S(=O)(=O)c1cncc(C#N)c1 [Example 117, (S)-5-cyano-N-ethyl-N-(2,2,2-trifluoro-1-(2-fluorophenyl)ethyl)pyridine-3-sulfonamide]
6.51 | CCN([C@H](c1ccc(F)cc1)C(F)(F)F)S(=O)(=O)c1cc2nncn2cn1 [Example 152, (R)—N-ethyl-N-(2,2,2-trifluoro-1-(4-fluorophenyl)ethyl)-[1,2,4]triazolo[4,3-c]pyrimidine-7-sulfonamide]
